Structures can show the parent of a compound that is named as a salt. Where two headings read alike, the source gives them in different places.
Legend:
[1] = biological target: T1, GST-ALK5 (TGF-beta receptor kinase) (Homo sapiens, UniProt P36897); experiment: In-vitro (enzyme) kinase flashplate assay: GST-ALK5 phosphorylation of GST-SMAD2 with 33P-ATP; assay type: biochemical; conditions: 384-well flashplate kinase assay, GST-ALK5 / GST-SMAD2, 33P-ATP, 30° C., 45 min; read-out: TβR activity (Example 50)
T1 sequence (P36897 34-503): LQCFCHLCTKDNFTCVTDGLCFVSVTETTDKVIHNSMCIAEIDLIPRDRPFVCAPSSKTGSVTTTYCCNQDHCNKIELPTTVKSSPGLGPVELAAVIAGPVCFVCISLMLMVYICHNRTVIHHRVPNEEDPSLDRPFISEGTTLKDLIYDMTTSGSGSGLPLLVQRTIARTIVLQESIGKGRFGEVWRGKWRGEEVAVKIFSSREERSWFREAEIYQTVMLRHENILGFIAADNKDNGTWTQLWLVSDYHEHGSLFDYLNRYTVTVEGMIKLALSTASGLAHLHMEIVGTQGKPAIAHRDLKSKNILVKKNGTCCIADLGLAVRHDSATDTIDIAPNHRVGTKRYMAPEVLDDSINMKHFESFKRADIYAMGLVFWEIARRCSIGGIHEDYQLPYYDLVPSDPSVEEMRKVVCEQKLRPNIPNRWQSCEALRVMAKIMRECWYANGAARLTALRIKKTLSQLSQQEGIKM
Method: In-vitro (Enzyme) Assay for Determination of the Efficacy of Inhibitors of the Inhibition of TGF-Beta-Mediated Effects
The kinase assay was carried out as 384-well flashplate assay. 31.2 nM of GST-ALK5, 439 nM of GST-SMAD2 and 3 mM of ATP (with 0.3 μCi of ^33P-ATP/well) were incubated in a total volume of 35 μl (20 mM of HEPES, 10 mM of MgCl2, 5 mM of MnCl2, 1 mM of DTT, 0.1% of BSA, pH 7.4) without or with test substance (5-10 concentrations) at 30° C. for 45 min. The reaction was stopped using 25 μl of 200 mM EDTA solution, filtered with suction at room temperature after 30 min, and the wells were washed with 3 times 100 μl of 0.9% NaCl solution. Radioactivity was measured in the TopCount. The IC50 values were calculated using RS1.

[2] = tested on: TGF-beta-induced phosphorylation of Smad2 (Ser465/467) and Smad3 (Ser423/425) in Mv1-Lu cells; experiment: Inhibition of Smad2/3 phosphorylation in Mv1Lu cells (PathScan Phospho-Smad2 ELISA); assay type: cell-based, mink Mustela vison; conditions: Neogale vison, read-out: TβR activity (Example 51)
Method: Inhibition of Smad2/3 Phosphorylation in Mv1 Lu Cells by TGF-Beta Receptor I Kinase Inhibitors
This assay was used to determine the inhibitory potency of compounds on TGF-beta-induced phosphorylation of Smad2 (Ser465/467) and Smad3 (Ser423/425). Mv1-Lu cells (lung epithelial cell line from mink Mustela vison; ATCC number: CCL-64) were seeded in DMEM (Invitrogen) supplemented with 10% fetal bovine serum (Pan Biotech) at a defined cell density in 24-well or 96-well plates (24-well plate: 1.5×10^5 cells per well; 96-well plate: 4×10^4 cells per well). Cell cultures were incubated in DMEM at 37° C. and 10% CO2. On the next day, the medium was replaced and cells were serum-starved for 16-20 hours. The following day, serial dilutions of compounds were added to the wells, pre-incubated for 1.5 hrs before recombinant TGF-beta 1 ligand (final concentration 5 ng/ml; R&D systems) was added. After one hour of ligand stimulation, lysates were prepared and analyzed using an enzyme-linked immunosorbent assay kit (PathScan Phospho-Smad2 Kit, Cell Signaling Technologies). The ELISA detects phosphorylated Smad2 as well as phosphorylated Smad3 with the phospho-specific antibody. TGF-beta stimulated cells and unstimulated cells served as positive and negative controls (100% and background control). The concentration of the vehicle DMSO was kept constant at 0.2% (v/v) in all wells. Dose-response relationships were fitted using curve fitting algorithms of the RS1 statistics software package (Brooks Automation Inc. RS/1- Statistical Tools Handbook. Release 6.2) to determine the concentration at which half-maximal inhibition (IC50) of Smad2/3 phosphorylation was achieved.

[3] = Mv1-Lu cells, TGF-beta 1 5 ng/ml, Phospho-Smad2/3 ELISA

Row | Structure (SMILES) | IC50 [1] [µM] | IC50 [2, 3] [µM] | IC50 [2] [µM]
1 | Cc1cccc(-c2cc(-c3nccc4cnccc34)c3cccnc3n2)n1 [Compound 7, 2-(6-Methyl-pyridin-2-yl)-4-[2,6]naphthyridin-1-yl-[1,8]naphthyridine] | < 1 | 1 to 10 | –
2 | Fc1ccc(Cl)cc1-c1cc(-c2cc(OCCN3CCOCC3)nc3cnccc23)c2cccnc2n1 [Compound 112, 4-[2-(5-Chloro-2-fluoro-phenyl)-[1,8]naphthyridin-4-yl]-2-(2-morpholin-4-yl-ethoxy)-[1,7]naphthyridine] | < 1 | < 1 | –
3 | Fc1ccc(Cl)cc1-c1cc(-c2nccc3cnccc23)c2cccnc2n1 [Compound 35, 2-(5-Chloro-2-fluoro-phenyl)-4-[2,6]naphthyridin-1-yl-[1,8]naphthyridine] | < 1 | < 1 | –
4 | Fc1ccc(Cl)cc1-c1cc(-c2cncc3ncccc23)c2cccnc2n1 [Compound 37, 5-[2-(5-Chloro-2-fluoro-phenyl)-[1,8]naphthyridin-4-yl]-[1,7]naphthyridine] | < 1 | 1 to 10 | –
5 | Cn1cc(-c2cnc3nc(-c4ccccc4F)cc(-c4nccc5c(N)nccc45)c3c2)cn1 [Compound 116, 5-[2-(2-Fluoro-phenyl)-6-(1-methyl-1H-pyrazol-4-yl)-[1,8]naphthyridin-4-yl]-[2,6]naphthyridin-1-ylamine] | > 10 | > 10 | –
6 | Fc1ccccc1-c1cc(-c2cccc3cnccc23)c2cccnc2n1 [Compound 19, 2-(2-Fluoro-phenyl)-4-isoquinolin-5-yl-[1,8]naphthyridine] | < 1 | < 1 | –
7 | Nc1ccc2c(-c3cccc4c(N)nccc34)cc(-c3ccccc3F)nc2n1 [Compound 117, 5-(1-Amino-isoquinolin-5-yl)-7-(2-fluoro-phenyl)-[1,8]naphthyridin-2-ylamine] | < 1 | < 1 | –
8 | COc1nccc2c(-c3cc(-c4ccccc4F)nc4ncccc34)nccc12 [Compound 40, 2-(2-Fluoro-phenyl)-4-(5-methoxy-[2,6]naphthyridin-1-yl)-[1,8]naphthyridine] | > 10 | > 10 | –
9 | Cn1cc(-c2cc(-c3cc(Cl)ccc3F)nc3ncccc23)c2ccncc2c1=O [Compound 74, 4-[2-(5-Chloro-2-fluoro-phenyl)-[1,8]naphthyridin-4-yl]-2-methyl-2H-[2,7]naphthyridin-1-one] | < 1 | < 1 | –
10 | COc1ccc2cnccc2c1-c1cc(-c2ccccc2F)nc2ncccc12 [Compound 70, 2-(2-Fluoro-phenyl)-4-(6-methoxy-isoquinolin-5-yl)-[1,8]naphthyridine] | < 1 | < 1 | –
11 | Fc1ccc(Cl)cc1-c1cc(-c2cnc(OCCN3CCOCC3)c3cnccc23)c2cccnc2n1 [Compound 77, 2-(5-Chloro-2-fluoro-phenyl)-4-[1-(2-morpholin-4-yl-ethoxy)-[2,7]naphthyridin-4-yl]-[1,8]naphthyridine] | < 1 | < 1 | –
12 | Nc1nccc2c(-c3cc(-c4ccccc4Cl)nc4ncccc34)nccc12 [Compound 90, 5-[2-(2-Chloro-phenyl)-[1,8]naphthyridin-4-yl]-[2,6]naphthyridin-1-ylamine] | < 1 | 1 to 10 | –
13 | O=c1cc(-c2cc(-c3cc(Cl)ccc3F)nc3ncccc23)c2ccncc2n1CCN1CCOCC1 [Compound 110, 4-[2-(5-Chloro-2-fluoro-phenyl)-[1,8]naphthyridin-4-yl]-1-(2-morpholin-4-yl-ethyl)-1H-[1,7]naphthyridin-2-one] | 1 to 10 | > 10 | –
14 | O=c1c2cnccc2c(-c2cc(-c3cc(Cl)ccc3F)nc3ncccc23)cn1CC(O)CO (stereo not shown) [Compound 81, 4-[2-(5-Chloro-2-fluoro-phenyl)-[1,8]naphthyridin-4-yl]-2-(2,3-dihydroxy-propyl)-2H-[2,7]naphthyridin-1-one] | < 1 | < 1 | –
15 | CCN(CC)CCOc1ccc(-c2cc(-c3cc(Cl)ccc3F)nc3ncccc23)c2ccncc12 [Compound 86, (2-{5-[2-(5-Chloro-2-fluoro-phenyl)-[1,8]naphthyridin-4-yl]-isoquinolin-8-yloxy}-ethyl)-diethyl-amine] | < 1 | < 1 | –
16 | Nc1nccc2c(-c3cc(-c4c(F)cccc4F)nc4ncccc34)nccc12 [Compound 109, 5-[2-(2,6-Difluoro-phenyl)-[1,8]naphthyridin-4-yl]-[2,6]naphthyridin-1-ylamine] | < 1 | > 10 | –
17 | Fc1ccc(Cl)cc1-c1cc(-c2cccc3cnccc23)c2cccnc2n1 [Compound 2, 2-(5-Chloro-2-fluoro-phenyl)-4-isoquinolin-5-yl-[1,8]naphthyridine] | < 1 | < 1 | –
18 | Fc1ccccc1-c1cc(-c2cnc(OCCN3CCOCC3)c3cnccc23)c2cccnc2n1 [Compound 78, 2-(2-Fluoro-phenyl)-4-[1-(2-morpholin-4-yl-ethoxy)-[2,7]naphthyridin-4-yl]-[1,8]naphthyridine] | < 1 | 1 to 10 | –
19 | O=c1c2cnccc2c(-c2cc(-c3cc(Cl)ccc3F)nc3ncccc23)cn1CCCO [Compound 75, 4-[2-(5-Chloro-2-fluoro-phenyl)-[1,8]naphthyridin-4-yl]-2-(3-hydroxy-propyl)-2H-[2,7]naphthyridin-1-one] | < 1 | < 1 | –
20 | Nc1ccc(-c2cc(-c3cc(F)ccc3F)nc3ncccc23)c2ccncc12 [Compound 38, 5-[2-(2,5-Difluoro-phenyl)-[1,8]naphthyridin-4-yl]-isoquinolin-8-ylamine] | < 1 | < 1 | –
21 | O=c1c2cnccc2c(-c2cc(-c3cc(F)ccc3F)nc3ncccc23)cn1CCO [Compound 72, 4-[2-(2,5-Difluoro-phenyl)-[1,8]naphthyridin-4-yl]-2-(2-hydroxy-ethyl)-2H-[2,7]naphthyridin-1-one] | < 1 | < 1 | –
22 | Cn1cc(-c2ccc(-c3cc(-c4ccccc4F)nc4ncccc34)c3ccncc23)cn1 [Compound 65, 2-(2-Fluoro-phenyl)-4-[8-(1-methyl-1H-pyrazol-4-yl)-isoquinolin-5-yl]-[1,8]naphthyridine] | < 1 | < 1 | –
23 | Nc1nccc2c(-c3cc(-c4cc(F)ccc4F)nc4ncccc34)nccc12 [Compound 20, 5-[2-(2,5-Difluoro-phenyl)-[1,8]naphthyridin-4-yl]-[2,6]naphthyridin-1-ylamine hydrochloride] | < 1 | – | < 1
24 | Fc1ccc(Cl)cc1-c1cc(-c2ccc(Cl)c3cnccc23)c2cccnc2n1 [Compound 83, 2-(5-Chloro-2-fluoro-phenyl)-4-(8-chloro-isoquinolin-5-yl)-[1,8]naphthyridine] | < 1 | < 1 | –
25 | Fc1ccc(Cl)cc1-c1cc(-c2coc3cnccc23)c2cccnc2n1 [Compound 12, 2-(5-Chloro-2-fluoro-phenyl)-4-furo[2,3-c]pyridin-3-yl-[1,8]naphthyridine] | < 1 | < 1 | –
26 | Nc1nccc2c(-c3cc(-c4cc(C(F)(F)F)ccc4F)nc4ncccc34)cccc12 [Compound 8, 5-[2-(2-Fluoro-5-trifluoromethyl-phenyl)-[1,8]naphthyridin-4-yl]-isoquinolin-1-ylamine] | < 1 | < 1 | –

From patent publication US8791113B2, “2,4-diaryl-substituted [1,8] naphthyridines as kinase inhibitors for use against cancer” (Merck Patent GmbH, priority 2010, dated 2014)
